Test results published in paper PMC2885440 (Journal of natural products, 2010).

Test: Relative polarity on C12 reversed-phase HPLC
Format: physicochemical
Conditions: C12 reversed-phase HPLC (Jupiter Proteo C12), linear gradient 50–80% MeOH in 0.05% TFA in 50 min

Substance: Lys-Ala-Leu1-Leu2-Trp (lariat or depsi) [Paltolide A]
- polarity among compounds 1–6: most polar
